Measured values reported in US20220251091A1, “AMORPHOUS UMBRALISIB MONOTOSYLATE” (Johnson Matthey Public Limited Company, priority 2019, published 2022).

Assays:
[1] = XRPD of the sample after DVS; format: physicochemical
Experimental: (§1) XRPD patterns are obtained using a Bruker D8 Advance equipped with a Cu Kα radiation source (λ=1.54 Å), a 9-position sample holder and a LYNXEYE super speed detector. Samples are placed on zero-background, silicon plate holders for analysis. One skilled in the art would recognize that the ° 20 values and the relative intensity values are generated by performing a peak search on the measured data and the d-spacing values are calculated by the instrument from the ° 20 values using Bragg's equation. One skilled in the art would further recognize that the relative intensity for the measured peaks may vary as a result of sample preparation, orientation and instrument used, for example.
(§2) DVS samples (5-10 mg) are analyzed using a TA Instruments Q5000 SA powerful dynamic vapor sorption analyzer. The relative humidity is started at about 50% and adjusted to between about 0-90% humidity with about a 10% increase or decrease in humidity for each step for 3 cycles. The weight of the sample is continuously monitored and recorded.

[2] = Dynamic vapor sorption (DVS); format: physicochemical; conditions: for hygroscopicity by DVS: 3 cycles
Experimental: as §2

[3] = XRPD after storage at about 40° C. under vacuum for about two weeks; format: physicochemical
Experimental: as §1

PI3K-delta = biological target: T1, PI3K-delta (Homo sapiens, UniProt O00329); conditions: Phase 2 trial, relapsed/refractory marginal zone lymphoma; cited from earlier work
T1 construct: host or cells: patients (clinical trial)
T1 sequence (O00329 whole entry): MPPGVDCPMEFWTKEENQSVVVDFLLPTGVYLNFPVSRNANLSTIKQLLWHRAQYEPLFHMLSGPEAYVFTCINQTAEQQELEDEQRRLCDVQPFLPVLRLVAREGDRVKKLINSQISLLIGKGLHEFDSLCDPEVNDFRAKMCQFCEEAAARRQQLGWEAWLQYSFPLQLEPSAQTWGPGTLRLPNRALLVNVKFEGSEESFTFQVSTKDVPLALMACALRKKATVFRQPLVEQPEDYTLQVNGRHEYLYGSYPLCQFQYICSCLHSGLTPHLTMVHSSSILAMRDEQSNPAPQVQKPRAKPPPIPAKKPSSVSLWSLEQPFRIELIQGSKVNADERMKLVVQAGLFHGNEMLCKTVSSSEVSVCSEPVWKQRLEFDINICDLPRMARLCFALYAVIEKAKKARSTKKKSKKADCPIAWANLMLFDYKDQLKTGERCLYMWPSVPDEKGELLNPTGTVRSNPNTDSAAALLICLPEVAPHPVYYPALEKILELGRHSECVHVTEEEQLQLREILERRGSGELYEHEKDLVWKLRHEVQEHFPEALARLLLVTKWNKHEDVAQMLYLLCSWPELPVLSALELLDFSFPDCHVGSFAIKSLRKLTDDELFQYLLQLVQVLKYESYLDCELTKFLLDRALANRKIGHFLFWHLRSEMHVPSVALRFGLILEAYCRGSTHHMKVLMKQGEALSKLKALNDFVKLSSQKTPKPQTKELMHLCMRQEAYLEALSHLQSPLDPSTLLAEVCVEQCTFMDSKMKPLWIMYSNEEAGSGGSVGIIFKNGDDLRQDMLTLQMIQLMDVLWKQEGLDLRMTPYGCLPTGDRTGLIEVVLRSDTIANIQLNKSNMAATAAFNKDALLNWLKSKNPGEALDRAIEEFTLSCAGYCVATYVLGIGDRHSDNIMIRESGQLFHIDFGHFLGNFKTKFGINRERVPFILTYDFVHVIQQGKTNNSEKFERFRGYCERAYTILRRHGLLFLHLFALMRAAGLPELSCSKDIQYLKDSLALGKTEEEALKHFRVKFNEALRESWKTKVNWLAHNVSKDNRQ
T1 sequence (P27986 whole entry partner): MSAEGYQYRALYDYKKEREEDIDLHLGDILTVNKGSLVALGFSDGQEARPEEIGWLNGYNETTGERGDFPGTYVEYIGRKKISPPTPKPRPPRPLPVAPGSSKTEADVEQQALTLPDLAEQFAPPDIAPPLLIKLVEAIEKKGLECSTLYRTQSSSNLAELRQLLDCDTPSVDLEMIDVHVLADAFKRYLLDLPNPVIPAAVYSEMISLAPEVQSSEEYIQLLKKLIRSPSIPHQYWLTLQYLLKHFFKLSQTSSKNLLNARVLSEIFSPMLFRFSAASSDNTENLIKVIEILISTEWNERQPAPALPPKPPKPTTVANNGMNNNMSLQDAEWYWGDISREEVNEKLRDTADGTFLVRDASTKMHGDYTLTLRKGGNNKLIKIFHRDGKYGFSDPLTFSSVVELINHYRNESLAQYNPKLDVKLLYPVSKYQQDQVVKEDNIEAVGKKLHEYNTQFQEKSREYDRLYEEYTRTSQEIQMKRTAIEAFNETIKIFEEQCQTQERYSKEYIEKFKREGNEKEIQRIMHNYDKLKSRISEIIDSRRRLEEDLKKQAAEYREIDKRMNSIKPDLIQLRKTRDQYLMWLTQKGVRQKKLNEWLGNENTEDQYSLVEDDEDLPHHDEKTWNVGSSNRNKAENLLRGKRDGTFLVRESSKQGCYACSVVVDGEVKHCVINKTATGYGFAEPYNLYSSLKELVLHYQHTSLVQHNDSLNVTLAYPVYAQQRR

Compound | solid form by XRPD after DVS [1] | hygroscopicity by DVS [2] | weight change between about 0-90% relative humidity [2] | weight change in the sample over three cycles [2] | solid form by XRPD after storage [3] | PI3K-delta inhibition in patients (PI3K-delta) | tolerability in patients (PI3K-delta)
CC(C)Oc1ccc(-c2nn([C@@H](C)c3oc4ccc(F)cc4c(=O)c3-c3cccc(F)c3)c3ncnc(N)c23)cc1F [Example 2, amorphous umbralisib monotosylate] | still amorphous | hygroscopic | ~4% | ~0.5% | still amorphous |  | 
CC(C)Oc1ccc(-c2nn([C@@H](C)c3oc4ccc(F)cc4c(=O)c3-c3cccc(F)c3)c3ncnc(N)c23)cc1F [Example 1, amorphous umbralisib monotosylate] | still amorphous | hygroscopic | ~4% | < 1% |  |  | 
CC(C)Oc1ccc(-c2nn([C@@H](C)c3oc4ccc(F)cc4c(=O)c3-c3cccc(F)c3)c3ncnc(N)c23)cc1F [umbralisib, (S)-2-(1-(4-amino-3-(3-fluoro-4-isopropoxyphenyl)-1H-pyrazolo[3,4-d]pyrimidin-1-yl)ethyl)-6-fluoro-3-(3-fluorophenyl)-4H-chromen-4-one] |  |  |  |  |  | effective PI3K-delta inhibition | well-tolerated
